Earlier results on two compounds are cited in patent US20230211112A1, “Method for emergency relief of acute ischemic attacks” (priority 2020, published 2023).

The data set relates to rats. The settings on record: confined space.

In the case of `[Ar]` [argon], the “oxygen consumption reduced compared to the control” value (average, vs air environment, same initial oxygen concentration) is listed as 27%. Besides, the “maximum survival time increased” value (vs air environment control) is 33%.

In the case of `[Xe]` [xenon], for the setting “vs air environment control”, the oxygen consumption decreased is reported as 3.2 times and the “time of maximum animal survival increased” value is 3.5 times.
